# Like-named read-outs stand apart in the source and are kept apart here.
# Columns and labels:
# Candida albicans = assay: Minimal Inhibitory Concentration (MIC) assay, broth microdilution per CLSI; format: cell-based; conditions: Candida albicans, read-out: Minimum Inhibitory Concentrations against Yeast Isolates, Candida albicans;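 also: two read times 24 hr and 48 hr of incubation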
# How it was run: (§1)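 CLSI broth microdilution in RPMI/0.165 M MOPS pH 7.0; 2-fold DMSO dilution series; inoculum 0.5 McFarland diluted 1:100; 35° C, ~24-48 hr; MIC = lowest conc. with no visible growth, read from plate bottom.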
# Candida glabrata = assay: as above; format: cell-based; conditions: Nakaseomyces glabratus, read-out: Minimum Inhibitory Concentrations against Yeast Isolates, Candida glabrata;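 also: two read times 24 hr and 48 hr of incubation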
# How it was run: as §1
# Candida parapsilosis = assay: as above; format: cell-based; conditions: Lodderomyces parapsilosis, read-out: Minimum Inhibitory Concentrations against Yeast Isolates, Candida parapsilosis;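 also: two read times 24 hr and 48 hr of incubation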
# How it was run: as §1
# C. glabrata = assay: Checkerboard FIC assay in combination with fluconazole (MIC alone and in combination, FICI); format: cell-based, Candida glabrata; conditions: for FICI of combination resulting in fluconazole MIC of: 2 ug/mL / FICI of combination resulting in fluconazole MIC of: 4 ug/mL / FICI of combination resulting in fluconazole MIC of: 8 ug/mL: FICI calculated using a fluconazole MIC of 16 μg/mL; for FICI of combination resulting in fluconazole MIC of: 2 ug/mL (value in parenthesis) / FICI of combination resulting in fluconazole MIC of: 4 ug/mL (value in parenthesis) / FICI of combination resulting in fluconazole MIC of: 8 ug/mL (value in parenthesis): FICI using a fluconazole MIC of 128 μg/mL; for MIC: Nakaseomyces glabratus; for Multiple of compound MIC to synergize fluconazole MIC to 2 ug/mL / Multiple of compound MIC to synergize fluconazole MIC to 4 ug/mL / Multiple of compound MIC to synergize fluconazole MIC to 8 ug/mL: concentration in combination as multiple of the compound's MIC alone; for Multiple of compound MIC to synergize fluconazole MIC to 2 ug/mL: fluconazole MIC 2 ug/mL; for Multiple of compound MIC to synergize fluconazole MIC to 4 ug/mL: fluconazole MIC 4 ug/mL; for Multiple of compound MIC to synergize fluconazole MIC to 8 ug/mL: fluconazole MIC 8 ug/mL; for Concentration of Methylgene compound to synergize fluconazole MIC to 2 ug/mL / Concentration of Methylgene compound to synergize fluconazole MIC to 4 ug/mL / Concentration of Methylgene compound to synergize fluconazole MIC to 8 ug/mL: in combination with fluconazole; for Concentration of Methylgene compound to synergize fluconazole MIC to 2 ug/mL: fluconazole MIC lowered to 2 ug/mL; for Concentration of Methylgene compound to synergize fluconazole MIC to 4 ug/mL: fluconazole MIC lowered to 4 ug/mL; for Concentration of Methylgene compound to synergize fluconazole MIC to 8 ug/mL: fluconazole MIC lowered to 8 ug/mL
# How it was run: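 C. glabrata was tested by CLSI broth microdilution checkerboard, crossing 2-fold dilutions of compound with 2-fold dilutions of fluconazole. The medium was RPMI with 0.165 M MOPS at pH 7.0, inoculated from a 0.5 McFarland suspension diluted 1:100, then incubated about 48 h at 35 °C. Single-agent MICs gave the FIC and FICI values.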
# [1] = 24 hr reading (first value of cell 24 hr/48 hr)
# [2] = 48 hr reading (second value of cell 24 hr/48 hr)
# [3] = MIC of the example compound alone against C. glabrata in the checkerboard assay, approximately 48 hr, read-out: Methylgene MIC
# [4] = test compound alone, C. glabrata, approx. 48 hr at 35° C., read-out: Compound MIC
MIC (Candida albicans; [1]),MIC (Candida albicans; [2]),MIC (Candida glabrata; [1]),MIC (Candida glabrata; [2]),MIC (Candida parapsilosis; [1]),MIC (Candida parapsilosis; [2]),FICI of combination resulting in fluconazole MIC of: 2 ug/mL (C. glabrata; C. glabrata),FICI of combination resulting in fluconazole MIC of: 4 ug/mL (C. glabrata; C. glabrata),FICI of combination resulting in fluconazole MIC of: 8 ug/mL (C. glabrata; C. glabrata),FICI of combination resulting in fluconazole MIC of: 2 ug/mL (value in parenthesis) (C. glabrata; C. glabrata),FICI of combination resulting in fluconazole MIC of: 4 ug/mL (value in parenthesis) (C. glabrata; C. glabrata),FICI of combination resulting in fluconazole MIC of: 8 ug/mL (value in parenthesis) (C. glabrata; C. glabrata),MIC (C. glabrata; [3]),MIC (C. glabrata; [4]),Multiple of compound MIC to synergize fluconazole MIC to 2 ug/mL (C. glabrata),Multiple of compound MIC to synergize fluconazole MIC to 4 ug/mL (C. glabrata),Multiple of compound MIC to synergize fluconazole MIC to 8 ug/mL (C. glabrata),Concentration of Methylgene compound to synergize fluconazole MIC to 2 ug/mL (C. glabrata; C. glabrata),Concentration of Methylgene compound to synergize fluconazole MIC to 4 ug/mL (C. glabrata; C. glabrata),Concentration of Methylgene compound to synergize fluconazole MIC to 8 ug/mL (C. glabrata; C. glabrata),SMILES
> 64 µg/mL,> 64 µg/mL,8 µg/mL,16 µg/mL,> 64 µg/mL,> 64 µg/mL,0.313,0.250,0.375,0.266,0.156,0.188,16 µg/mL,16 µg/mL,(¼x),(⅛x),(⅛x),4 µg/mL,2 µg/mL,2 µg/mL,"O=C(Cc1ccc(CCCCc2cccc(NC(=O)NCCN3CCOCC3)c2)cc1)NO [Example 50, N-hydroxy-2-(4-(4-(3-(3-(2-morpholinoethyl)urei-do)phenyl)butyl)phenyl)acetamide]"
> 8 µg/mL,> 8 µg/mL,> 8 µg/mL,> 8 µg/mL,> 8 µg/mL,> 8 µg/mL,0.375,0.500,0.625,0.266,0.281,0.188,16 µg/mL,16 µg/mL,(¼x),(¼x),(⅛x),4 µg/mL,4 µg/mL,2 µg/mL,"O=C(Cc1ccc(CCCCc2ccc(NC(=O)CO)cc2)cc1)NO [Example 36, N-hydroxy-2-(4-(4-(4-(2-hydroxyacetamido)phenyl)butyl)phenyl)acetamide]"
> 2 µg/mL,> 2 µg/mL,0.25 µg/mL,0.5 µg/mL,> 2 µg/mL,> 2 µg/mL,0.563,0.625,0.490,0.516,0.531,0.303,0.5 µg/mL,0.5 µg/mL,(½x),(½x),(¼x),0.25 µg/mL,0.25 µg/mL,0.12 µg/mL,"CC(C)(C(=O)NO)c1ccc(CCCCc2ccccc2)cc1 [Example 56, N-hydroxy-2-methyl-2-(4-(4-phenylbutyl)phenyl)propanamide]"
> 16 µg/mL,> 16 µg/mL,> 8 µg/mL,> 8 µg/mL,> 16 µg/mL,> 16 µg/mL,0.375,0.500,0.625,0.266,0.281,0.188,4 µg/mL,4 µg/mL,(¼x),(¼x),(⅛x),1 µg/mL,1 µg/mL,0.5 µg/mL,"Nc1ccc(CCCCc2ccc(CC(=O)NO)cc2)cc1 [Example 31, 2-(4-(4-(4-aminophenyl)butyl)phenyl)-N-hydroxyacetamide]"
> 64 µg/mL,> 64 µg/mL,4 µg/mL,16 µg/mL,> 64 µg/mL,> 64 µg/mL,0.313,0.250,0.375,0.266,0.156,0.188,16 µg/mL,16 µg/mL,(¼x),(⅛x),(⅛x),4 µg/mL,2 µg/mL,2 µg/mL,"O=C(Cc1ccc(CCCCc2ccc(NS(=O)(=O)CCN3CCOCC3)cc2)cc1)NO [Example 51, N-hydroxy-2-(4-(4-(4-(2-morpholinoethylsulfona-mido)phenyl)butyl)phenyl)acetamide]"
8 µg/mL,16 µg/mL,2 µg/mL,4 µg/mL,16 µg/mL,> 16 µg/mL,0.313,0.375,0.375,0.266,0.281,0.188,4 µg/mL,4 µg/mL,(¼x),(¼x),(⅛x),1 µg/mL,1 µg/mL,0.5 µg/mL,"COc1ccc(CCCCc2ccc(CC(=O)NO)cc2)cc1OC [Example 13, 2-(4-(4-(3,4-dimethoxyphenyl)butyl)phenyl)-N-hydroxyacetamide]"
